Series [1] deals with T1, NTD (isolated N-terminal SPOUT domain of EcTrmJ) (Escherichia coli, UniProt P0AE01).
T1 sequence (P0AE01 1-170): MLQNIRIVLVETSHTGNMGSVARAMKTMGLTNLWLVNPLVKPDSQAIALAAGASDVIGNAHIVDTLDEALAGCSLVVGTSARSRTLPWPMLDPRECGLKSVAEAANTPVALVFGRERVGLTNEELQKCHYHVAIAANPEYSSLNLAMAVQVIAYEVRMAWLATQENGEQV
The series can be described thus: isothermal titration calorimetry. Type of series: binding. The following applies: 25 °C, 20 mM Tris-HCl pH 7.5, 100 mM NaCl, 10 mM MgCl2. On the technique in general: ITC needs no label: the signal is the heat of the interaction.

The series “crystal structure” concerns the molecule itself. The series can be described thus: crystal structure.

Consider `Nc1ncnc2c1ncn2[C@@H]1O[C@H](CSCC[C@H](N)C(=O)O)[C@@H](O)[C@H]1O` [SAH], for which, in series [1], the KD entry is given as “NTD alone could bind SAH as effectively as full-length EcTrmJ”.

B1: Escherichia coli TrmJ (EcTrmJ), tRNA Xm32 methyltransferase, full-length (enzyme, Escherichia coli K-12 MG1655, UniProt P0AE01 1-246, looked up)
chain: MLQNIRIVLVETSHTGNMGSVARAMKTMGLTNLWLVNPLVKPDSQAIALAAGASDVIGNAHIVDTLDEALAGCSLVVGTSARSRTLPWPMLDPRECGLKSVAEAANTPVALVFGRERVGLTNEELQKCHYHVAIAANPEYSSLNLAMAVQVIAYEVRMAWLATQENGEQVEHEETPYPLVDDLERFYGHLEQTLLATGFIRENHPGQVMNKLRRLFTRARPESQELNILRGILASIEQQNKGNKAE
As usually defined, the stoichiometry N is a count of units in the complex or per binding partner. On to B1, for which the “stoichiometry N” value in “crystal structure” was determined as 2.

The values above are taken from publication PMC4551947 (Nucleic Acids Research, 2015).
